Reference: article PMC4979595, “Pilot PET Study to Assess the Functional Interplay Between ABCB1 and ABCG2 at the Human Blood–Brain Barrier” (Clinical Pharmacology and Therapeutics, 2016)
Several values for one entry are separate records, joined by “and”; a condition that tells them apart may be missing. Equal entries are not always repeated. Where two headings read alike, the source gives them in different places. Marks after values point to notes of the source that are not given here. Each block holds one molecule with its values, some of them ahead of it.

Assays:
[1] = Plasma time-activity curve AUC of radiotracers; settings: c.421CC
Description: (§1) A whole brain gray matter region of interest was defined on individual magnetic resonance images acquired in all study participants (T1‐weighted Achieva 3.0T scanner; Philips Medical Systems, Best, The Netherlands) using the Hammersmith n30r83 3D maximum probability atlas of the human brain.43 In addition, the pituitary gland was manually delineated.

[2] = test system: ABCB1 and ABCG2 at the human BBB; assay: PET brain distribution of radiotracers, baseline scan and scan during ABCB1 inhibition with tariquidar infusion; settings: for K 1 / k 2 / k 3 / k 4: 2T4K model; for K 1 / k 2 / k 3 / k 4 / V T (2T4K) / V T (Logan): whole brain; for whole brain V T (Logan) lower than V T (Logan) in the pituitary gland: c.421CC subjects
Description: as §1

[3] = Plasma protein binding by ultrafiltration; settings: similar in baseline and ABCB1 inhibition scans, high nonspecific filter binding
[4] = Radiolabeled metabolites / unchanged radiotracer in plasma during PET (solid-phase extraction); settings: 60 minutes after injection, c.421CC subjects
[5] = test system: ABCB1 and ABCG2 at the human BBB; settings: in vivo
Description: as §1

[6] = in vitro; settings: human, plasma
[7] = test system: ABCB1 at the human BBB; parameters: method as in PMID 25669913; settings: tariquidar plasma concentration; previously estimated; read-out: in vivo IC50 for inhibition of ABCB1 transport of (R)-[^11C]verapamil at the human BBB; cited from earlier work
[8] = Safety monitoring: adverse events during study participation; assay type: in vivo, human; settings: relationship with tariquidar administration could not be excluded
Description: During the PET study, heart rate and blood pressure were repeatedly measured and recorded. In addition, clinical laboratory blood and urine tests were performed. Adverse events were recorded.

[9] = biological target: T1, human ABCG2 (Homo sapiens, UniProt Q9UNQ0); assay: In vitro uptake assay in MDCK-ABCG2 cells: tariquidar inhibition of ABCG2-mediated transport; assay type: cell-based; settings: for IC50: IC50 of tariquidar for inhibition of ABCG2 transport, 120 min uptake
T1 construct: P. Borst and Dr. A. Schinkel (Netherlands Cancer Institute); host or cells: MDCK-II (MDCK-ABCG2)
T1 sequence (Q9UNQ0 1-655): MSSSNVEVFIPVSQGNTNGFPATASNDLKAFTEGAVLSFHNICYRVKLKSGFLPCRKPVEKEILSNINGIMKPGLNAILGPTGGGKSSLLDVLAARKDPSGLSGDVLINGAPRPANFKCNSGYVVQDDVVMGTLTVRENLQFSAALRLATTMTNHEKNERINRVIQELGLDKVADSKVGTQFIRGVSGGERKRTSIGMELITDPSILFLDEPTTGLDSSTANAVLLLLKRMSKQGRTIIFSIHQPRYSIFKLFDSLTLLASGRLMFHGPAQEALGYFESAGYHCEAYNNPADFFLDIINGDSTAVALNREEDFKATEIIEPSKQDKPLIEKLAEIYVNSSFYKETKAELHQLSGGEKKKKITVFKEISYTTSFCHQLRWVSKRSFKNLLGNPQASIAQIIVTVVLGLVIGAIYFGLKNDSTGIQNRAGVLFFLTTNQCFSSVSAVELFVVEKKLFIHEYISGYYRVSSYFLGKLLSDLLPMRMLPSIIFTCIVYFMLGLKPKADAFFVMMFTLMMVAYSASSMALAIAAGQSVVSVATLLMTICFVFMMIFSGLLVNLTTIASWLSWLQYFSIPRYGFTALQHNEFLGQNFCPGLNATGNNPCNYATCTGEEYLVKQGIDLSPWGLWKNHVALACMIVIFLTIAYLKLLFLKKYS
Description: LLC‐PK1 cells transduced with human ABCB1 (LLC‐ABCB1) and MDCK‐II cells transduced with human ABCG2 (MDCK‐ABCG2) were kindly provided by Prof. P. Borst and Dr. A. Schinkel (Netherlands Cancer Institute, Amsterdam, Netherlands). Culturing of the cells and testing of vincristine sulfate resistance (0.64 μmol/L) for LLC‐ABCB1 cells and mitoxantrone resistance (20 μmol/L) for MDCK‐ABCG2 cells was performed as described previously.46
Cells were seeded with a density of 0.3 × 10^6 cells/cm^2 on 96‐well plates (white Isoplates for liquid scintillation counting, Perkin Elmer, Rodgau, Germany). Then 5–7 days after the cells reached 100% confluence, the experiment was initiated with 1‐hour preincubation at 37°C, 5% carbon dioxide, and 95% humidity, for which culture medium was replaced by serum‐free Opti‐MEM (Gibco/Life Technologies, Darmstadt, Germany). […] After 120 minutes (37°C, 5% carbon dioxide, 95% humidity), cells were transferred on ice, washed twice with ice‐cold phosphate‐buffered saline before lysis buffer (25 mmol/L Tris, pH 8, 50 mmol/L sodium chloride, 0.5% (w/v) deoxycholic acid, 0.5% (w/v) Triton X‐100) supplemented with complete protease inhibitor (Roche, Mannheim, Germany) was added and protein concentrations in the respective wells were determined by using the Pierce BCA Protein Assay kit (ThermoScientific, Pittsburgh, PA).
With Prism 6.0 software (GraphPad Software, La Jolla, CA), a sigmoidal model with variable slope was used to analyze concentration–response relationships by nonlinear regression.

[10] = parameters: method as in earlier work; settings: (R)-[^11C]verapamil group, no ABCG2 genotype available, data from previous study, cited from earlier work
[11] = biological target: T2, human ABCB1 (Homo sapiens, UniProt P08183); assay: cell-based
T2 sequence (P08183 whole entry): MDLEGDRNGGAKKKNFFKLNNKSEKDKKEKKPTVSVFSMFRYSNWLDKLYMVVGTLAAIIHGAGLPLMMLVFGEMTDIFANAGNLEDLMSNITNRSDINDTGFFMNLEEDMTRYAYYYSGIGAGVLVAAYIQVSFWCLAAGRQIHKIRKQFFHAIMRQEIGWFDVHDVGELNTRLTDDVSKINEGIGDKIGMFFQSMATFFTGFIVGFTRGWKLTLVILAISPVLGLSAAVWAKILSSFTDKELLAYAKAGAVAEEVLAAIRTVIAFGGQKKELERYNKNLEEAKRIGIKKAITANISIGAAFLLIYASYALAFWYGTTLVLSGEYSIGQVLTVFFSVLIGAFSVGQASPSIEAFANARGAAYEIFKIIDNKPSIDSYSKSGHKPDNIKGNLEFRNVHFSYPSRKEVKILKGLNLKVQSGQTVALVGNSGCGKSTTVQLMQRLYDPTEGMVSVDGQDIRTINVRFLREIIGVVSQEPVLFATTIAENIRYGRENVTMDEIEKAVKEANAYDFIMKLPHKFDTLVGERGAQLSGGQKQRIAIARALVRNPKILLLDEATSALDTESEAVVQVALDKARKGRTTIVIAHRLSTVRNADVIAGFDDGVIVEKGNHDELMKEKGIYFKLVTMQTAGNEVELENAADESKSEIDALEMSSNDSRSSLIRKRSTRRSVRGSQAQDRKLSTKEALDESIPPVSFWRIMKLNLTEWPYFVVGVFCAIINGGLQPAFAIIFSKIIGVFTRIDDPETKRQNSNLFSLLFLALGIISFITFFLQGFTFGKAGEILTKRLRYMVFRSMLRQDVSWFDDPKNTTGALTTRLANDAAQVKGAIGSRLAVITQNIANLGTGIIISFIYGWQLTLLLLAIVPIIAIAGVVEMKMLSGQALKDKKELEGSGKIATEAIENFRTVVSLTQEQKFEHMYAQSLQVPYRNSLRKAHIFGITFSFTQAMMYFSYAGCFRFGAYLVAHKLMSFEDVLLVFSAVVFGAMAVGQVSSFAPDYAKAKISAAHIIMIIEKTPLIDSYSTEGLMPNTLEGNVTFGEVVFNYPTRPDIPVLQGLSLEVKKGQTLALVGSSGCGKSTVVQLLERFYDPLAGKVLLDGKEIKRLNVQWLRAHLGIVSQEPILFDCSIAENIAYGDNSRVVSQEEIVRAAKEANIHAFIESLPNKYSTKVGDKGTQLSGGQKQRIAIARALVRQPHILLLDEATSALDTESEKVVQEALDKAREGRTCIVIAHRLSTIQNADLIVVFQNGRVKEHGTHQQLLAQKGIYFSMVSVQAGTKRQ

[12] = biological target: T2, human ABCB1
[13] = Tariquidar plasma concentrations during second PET scan (LC-MS/MS)

AUC ABCB1 inhibition (plasma time-activity curve) ([1]; 0 to 60 min): 46.9 ± 8.0 SUV x min
AUC baseline (plasma time-activity curve) ([1]; 0 to 60 min): 37.2 ± 6.2 SUV x min
% change over baseline (plasma AUC) [1]: 27 ± 12%
K 1 ([2]; c.421CC ABCB1 inhibition): 0.013 ± 0.005 (8) mL/(g x min)
k 2 ([2]; c.421CC ABCB1 inhibition): 0.302 ± 0.250 (31) 1/min
k 3 ([2]; c.421CC ABCB1 inhibition): 0.198 ± 0.050 (21) 1/min
k 4 ([2]; c.421CC ABCB1 inhibition): 0.016 ± 0.003 (13) 1/min
K 1 ([2]; c.421CC baseline): 0.006 ± 0.002 (9) mL/(g x min)
k 2 ([2]; c.421CC baseline): 0.135 ± 0.050 (33) 1/min
k 3 ([2]; c.421CC baseline): 0.148 ± 0.040 (22) 1/min
k 4 ([2]; c.421CC baseline): 0.015 ± 0.004 (17) 1/min
whole brain V T (Logan) lower than V T (Logan) in the pituitary gland ([2]; scan 1 (baseline)): 13.2 ± 4.6 fold
whole brain V T (Logan) lower than V T (Logan) in the pituitary gland ([2]; scan 2 (ABCB1 inhibition)): 7.9 ± 2.1 fold
baseline whole brain V T (Logan) lower in humans than in rats ([2]; comparison with a previous preclinical study): ~2 fold
V T (Logan) in the pituitary gland during tariquidar infusion as compared with baseline scans ([2]; pituitary gland): not significantly different
increase in V T (Logan) in scan 2 ([2]; single c.421CA subject with the highest increase (scanned with both radiotracers)): 2.3 fold
V T (2T4K) ([2]; c.421CC ABCB1 inhibition): 0.676 ± 0.111 (6)
V T (Logan) ([2]; c.421CC ABCB1 inhibition): 0.658 ± 0.098 (9)
V T (2T4K) ([2]; c.421CC baseline): 0.492 ± 0.051 (9)
V T (Logan) ([2]; c.421CC baseline): 0.478 ± 0.027 (6)
Plasma protein binding [3]: > 99%
percentage of unchanged radiotracer in plasma ([4]; baseline scans): 94.6 ± 2.3%
percentage of unchanged radiotracer in plasma ([4]; second PET scan (tariquidar infusion)): 94.7 ± 1.1%
SMILES: COc1cc2c(cc1OC)CN(CCc1ccc(NC(=O)c3cccc4c(=O)c5cccc(OC)c5[nH]c34)cc1)CC2 [[^11C]elacridar]

baseline whole brain V T (Logan) lower in humans than in rats ([5]; human compared with rat): ~2 fold
V T (Logan) ([5]; human): 0.40
increase in V T (Logan) in scan 2 ([5]; human): 3.1 fold
fraction unbound [6]: < 0.01
SMILES: COc1cc2c(cc1OC)CN(CCc1ccc(NC(=O)c3cc(OC)c(OC)cc3NC(=O)c3cnc4ccccc4c3)cc1)CC2 [[^11C]tariquidar]

IC50 ([9]; [^3H]elacridar (1 nmol/L) as substrate): 813 nM
IC50 ([9]; [^3H]tariquidar (1 nmol/L) as substrate): 310 nM
Hill slope ([9]; [^3H]elacridar as substrate): 1.1
Hill slope ([9]; [^3H]tariquidar as substrate): 1.1
IC50 [11]: 29.5 nM
IC50 [12]: 17.1 nM
Tariquidar plasma concentration during the PET scan (average of three determinations) ([13]; [^11C]elacridar group, c.421CC, i.v. infusion, total dose 5.7 ± 0.8 mg/kg): 2.6 ± 0.5 µmol/L
Tariquidar plasma concentration at the time of PET ([13]; [^11C]tariquidar group, c.421CA, i.v. infusion): 3.2 ± 0.4 µmol/L
Tariquidar concentration in plasma of individual subjects ([13]; end of PET, [^11C]elacridar c.421CA): 2.22 µmol/L
Tariquidar concentration in plasma of individual subjects ([13]; middle of PET, [^11C]elacridar c.421CA): 2.23 µmol/L
Tariquidar concentration in plasma of individual subjects ([13]; start of PET, [^11C]elacridar c.421CA): 1.94 ^a µmol/L
SMILES: COc1cc2c(cc1OC)CN(CCc1ccc(NC(=O)c3cc(OC)c(OC)cc3NC(=O)c3cnc4ccccc4c3)cc1)CC2 [tariquidar]
IC50 [7]: 2300 ± 1000 nM
Adverse event: abdominal cramps and vomiting [8]: one
Adverse event: collapse [8]: four
Adverse event: dizziness [8]: two
Adverse event: dysgeusia [8]: 10 subjects
Adverse event: headache [8]: three
Adverse event: phlebitis [8]: three
Tariquidar concentration in plasma of individual subjects ([10]; end of PET): 3.76 µmol/L and 2.52 µmol/L and 4.11 µmol/L and 2.83 µmol/L and 3.38 µmol/L
Tariquidar concentration in plasma of individual subjects ([10]; middle of PET): 3.61 µmol/L and 2.71 µmol/L and 3.88 µmol/L and 2.85 µmol/L and 2.56 µmol/L
Tariquidar concentration in plasma of individual subjects ([10]; start of PET): 2.81 µmol/L and 1.70 µmol/L and 2.36 µmol/L and 1.91 µmol/L and 2.11 µmol/L
Tariquidar concentration in plasma of individual subjects ([13]; end of PET, [^11C]elacridar c.421CC): 2.45 µmol/L and 1.98 µmol/L and 2.58 µmol/L and 2.72 µmol/L and 4.03 µmol/L
Tariquidar concentration in plasma of individual subjects ([13]; end of PET, [^11C]tariquidar c.421CA): 3.67 µmol/L and 3.18 µmol/L and 2.24 µmol/L and 3.08 µmol/L and 3.79 µmol/L
Tariquidar concentration in plasma of individual subjects ([13]; end of PET, [^11C]tariquidar c.421CC): 2.71 µmol/L and 2.78 µmol/L and 3.13 µmol/L and 3.70 µmol/L
Tariquidar concentration in plasma of individual subjects ([13]; middle of PET, [^11C]elacridar c.421CC): 2.33 µmol/L and 2.55 µmol/L and 2.71 µmol/L and 2.43 µmol/L and 3.73 µmol/L
Tariquidar concentration in plasma of individual subjects ([13]; middle of PET, [^11C]tariquidar c.421CA): 3.93 µmol/L and 3.55 µmol/L and 3.31 µmol/L and 2.86 µmol/L and 3.57 µmol/L
Tariquidar concentration in plasma of individual subjects ([13]; middle of PET, [^11C]tariquidar c.421CC): 2.68 µmol/L and 2.09 µmol/L and 2.95 µmol/L and 2.70 µmol/L and 2.65 µmol/L
Tariquidar concentration in plasma of individual subjects ([13]; start of PET, [^11C]elacridar c.421CC): 2.67 µmol/L and 1.83 µmol/L and 1.71 µmol/L and 2.74 µmol/L and 2.73 µmol/L
Tariquidar concentration in plasma of individual subjects ([13]; start of PET, [^11C]tariquidar c.421CA): 3.70 µmol/L and 2.61 µmol/L and 2.87 ^a µmol/L and 2.47 µmol/L and 2.80 µmol/L
Tariquidar concentration in plasma of individual subjects ([13]; start of PET, [^11C]tariquidar c.421CC): 2.91 µmol/L and 2.17 µmol/L and 2.65 µmol/L and 2.67 µmol/L and 2.64 µmol/L
